Results as given in US7666834B2, “Macrocyclic inhibitors of hepatitis C virus” (Tibotec Pharmaceuticals Ltd., priority 2005, dated 2010).
Where two headings read alike, the source gives them in different places.

Key:
[1] = rcm bond, DCE
[2] = rcm bond; 14-membered ring; Hoveyda-Grubbs II (25 mol%); DCE; 1.46 mM; 150.0 °C
HCV = settings: sustained administration; mutations D168V, D168A and/or A156S; cited from earlier work
[3] = test system: HCV replicons (NS3-NS5B regions of HCV type 1b) in Huh-7 luc/neo cells; test: Replicon assay (Huh-Luc cells, luciferase readout); assay type: cell-based; settings: Hepatitis C virus, Huh-7, 72 h, three days incubation, luciferase activity
From the text: It will be appreciated that it is important to distinguish between compounds that specifically interfere with HCV functions from those that exert cytotoxic or cytostatic effects in the HCV replicon model, and as a consequence cause a decrease in HCV RNA or linked reporter enzyme concentration. Assays are known in the field for the evaluation of cellular cytotoxicity based for example on the activity of mitochondrial enzymes using fluorogenic redox dyes such as resazurin. Furthermore, cellular counter screens exist for the evaluation of non-selective inhibition of linked reporter gene activity, such as firefly luciferase.
The compounds of formula (I) were examined for activity in the inhibition of HCV RNA replication in a cellular assay. […] The cellular assay was based on a bicistronic expression construct, as described by Lohmann et al. (1999) Science vol. […]
The replicon cells were plated in 384 well plates in the presence of the test and control compounds which were added in various concentrations. Following an incubation of three days, HCV replication was measured by assaying luciferase activity (using standard luciferase assay substrates and reagents and a Perkin Elmer ViewLux™ ultraHTS microplate imager). […] The inhibitory activity of the compound on luciferase activity was monitored on the Huh-Luc cells, enabling a dose-response curve for each test compound.

HCV NS3/4A protease = HCV NS3/4A protease (Hepatitis C virus genotype 1a, UniProt P27958); test: biochemical; settings: full-length NS3 protease 1 nM, 25 μM NS4A cofactor, competitive inhibition model; read-out: Ki (nM) Enzymatic assay
Experimental: [Landro, 1997 #Biochem 36 9340-9348]. […] The solutions were stored at −20° C. between measurements.

SMILES: CCOC(=O)C12CC1C=CCCCCCN(Cc1ccc(OC)cc1)C(=O)N1CC(O[Si](C)(C)C(C)(C)C)CC1C(=O)N2 (centres unmarked)
- ring closure, isolated yield ([1]; from C=CCCCCCN(Cc1ccc(OC)cc1)C(=O)N1CC(O[Si](C)(C)C(C)(C)C)CC1C(=O)NC1(C(=O)OCC)CC1C=C, 15-membered ring, Hoveyda-Grubbs II (10 mol%), 1.6 mM): 48%

SMILES: CN1CCCCC=CC2CC2(C(=O)NS(=O)(=O)C2CC2)NC(=O)C2CC(O)CC2C1=O (centres unmarked)
- ring closure, isolated yield ([1]; 14-membered ring, Hoveyda-Grubbs II (15 mol%), 2.07 mM): 77%

SMILES: CN1CCCCC=CC2CC2(C(=O)NS(=O)(=O)C2CC2)NC(=O)C2CC(OC(=O)Nc3ccccc3N3CCCCC3)CC2C1=O (centres unmarked)
- ring closure, yield after HPLC [2]: 36%

SMILES: COc1ccc2c(O[C@@H]3C[C@H]4C(=O)N[C@]5(C(=O)O)C[C@H]5/C=C\CCCCC[C@H](NC(=O)OC5CCCC5)C(=O)N4C3)cc(-c3csc(NC(C)C)n3)nc2c1 [BILN-2061]
- selection of drug escape mutants (HCV): selects HCV mutants which are resistant to the respective drug

SMILES: CN1CCCC/C=C\[C@@H]2C[C@@]2(C(=O)NS(=O)(=O)C2CC2)NC(=O)[C@@H]2C[C@@H](OC(=O)Nc3ccccc3F)C[C@H]2C1=O [Compound 25, (2-Fluorophenyl)carbamic acid 4-cyclopropanesulfonyl-aminocarbonyl-13-methyl-2,14-dioxo-3,13-diazatricyclo[13.3.0.0^4,6]octadec-7-en-17-yl ester]
- EC50 [3]: 8.4 µM
- Ki (HCV NS3/4A protease): 51 nM

SMILES: CCOC(=O)c1ccccc1NC(=O)O[C@@H]1C[C@H]2C(=O)N[C@]3(C(=O)NS(=O)(=O)C4CC4)C[C@H]3/C=C\CCCCN(C)C(=O)[C@@H]2C1 [Compound 26, 2-(4-Cyclopropanesulfonylaminocarbonyl-13-methyl-2,14-dioxo-3,13-diaza-tricyclo-[13.3.0.0^4,6]octadec-7-en-17-yloxycarbonylamino)-benzoic acid ethyl ester]
- EC50 [3]: 0.0492 µM

SMILES: CCC[C@H](NC(=O)[C@@H]1[C@H]2CCC[C@H]2CN1C(=O)[C@@H](NC(=O)[C@@H](NC(=O)c1cnccn1)C1CCCCC1)C(C)(C)C)C(=O)C(=O)NC1CC1 [VX-950]
- selection of drug escape mutants (HCV): selects HCV mutants which are resistant to the respective drug
